# Assay results published in patent US20120053189A1, “BTK INHIBITORS FOR THE TREATMENT OF IMMUNE MEDIATED CONDITIONS” (Pharmacyclics, Inc., priority 2010, published 2012).
# Entries after “also recorded” stand apart in the source; their conditions may differ. Where two headings read alike, the source gives them in different places.
# Key:
# VEGFR2 = VEGFR2 (Homo sapiens, UniProt P35968); test: kinase selectivity, VEGFR2; type: biochemical
# CD3+ T cells = test: T cell viability; type: cell-based, human; conditions: concentrations below 10 μM
# Experimental: (§1) CD20+ B and CD3+ T cells were purified by negative selection (RosetteSep, >90% purity) from Buffy coat PBMC and viably frozen in 10% DMSO. Cells were thawed at 37° C. and maintained in growth media (RPMI media containing 10% FCS). B cells were stimulated with goat anti-human IgM F(ab′)2 (10 ug/ml, Invitrogen) and T cells were stimulated with anti-CD3/CD28 coated beads (Dynabeads) at a 1:1 bead/cell ratio. Cells were stained with PE-CD69 (BD) and analyzed by flow cytometry, gating on viable lymphocytes. […] For washout experiments, cells were rinsed 3× in 10 volumes of growth media, a protocol that was confirmed to completely wash away inhibition of BCR signaling by a reversible Btk inhibitor.
# [1] = tested on: murine collagen-induced arthritis (CIA) model; test: murine collagen-induced arthritis (CIA) model; type: in vivo, mice; conditions: for inflammatory synovitis, pannus formation, synovial fluid cytokines, cartilage damage and bone erosion: preventive and established murine CIA models
# Experimental: Male mice 7 weeks of age were purchased from Harlan Laboratories, and acclimated for a minimum of 3 days. Mice were immunized on Day 0 with 150 μg of bovine collagen II (Chondrex Inc) in CFA (Sigma), and boosted with 100 μg of bovine collagen II in IFA on day 21. Fore and hind paws of mice were scored daily with a clinical scoring system using the following criteria:
# 0=normal 1=1 hind or fore paw joint affected • with minimal diffuse swelling and erythema (redness of the skin due to congestion of the capillaries)
# 2=2 hind or fore paw joints affected • with minimal diffuse swelling and erythema (redness of the skin due to congestion of the capillaries)
# 3=3 hind or fore paw joints affected • with minimal diffuse swelling and erythema (redness of the skin due to congestion of the capillaries)
# 4=minimum of 4 joints affected • marked diffuse swelling and erythema (redness of the skin due to congestion of the capillaries)
# 5=minimum entire paw, • unable to flex (Severe diffuse swelling and erythema redness of the skin due to congestion of the capillaries
# Mice were enrolled randomly into treatment groups when a minimum mean paw score of 1.0 was established. The treatments started on the day of enrollment and continued for 12 days. Clinical scores were monitored daily for each animal in the treatment groups.
# [2] = tested on: human whole blood basophils; test: whole blood basophil assay, CD63 after anti-IgE stimulation; type: cell-based; conditions: for EC50: human whole blood basophils, read-out: EC50 of inhibition of anti-IgE mediated upregulation of CD63
# Experimental: Fresh whole blood was collected on the day of the experiment from a healthy volunteer. Whole blood is stimulated with 10 ng/mL of rhIL-3 (Invitrogen) and […] of anti-IgE (Beckman Coulter) in Basophil Stimulation Buffer (20 mM HEPES pH 7.4, 125 mM NaCl, 5 mM KCl, 2.5 mM CaCl2, 1 mM MgCl2, 0.5% Glucose, 0.1% BSA) at 37° C. for 15 min. The reaction was terminated by the addition of EDTA. The stimulated whole blood was then stained with a fluorescent three-antibody cocktail (FITC-Anti-CD63/PerCP-Anti-HLA-DR/PE-Anti-CD123) (BD Biosciences) at room temperature in the dark for 15 min. Following staining, blood was treated with 1×FACS Lysing solution (BD Biosciences) for 15 minutes to lyse the RBC. The lysed RBC supernatant was removed following centrifugation for […]. The cell pellet was resuspended and fixed in 0.5% paraformaldehyde in PBS. The percentage of basophil degranulation was determined by the % of CD63 cells that were CD123 positive and HLA-DR negative.
# JAK2 = JAK2 (Homo sapiens, UniProt O60674); test: kinase selectivity, JAK2; type: biochemical
# Btk = Btk (Homo sapiens, UniProt Q06187); test: Btk biochemical assays
# CD20+ B cells [3] = test: human B cell activation following BCR stimulation by anti-IgM (CD69); type: cell-based; conditions: read-out: EC50 of inhibition of human B cell activation
# Experimental: as §1
# EGFR = EGFR (Homo sapiens, UniProt P00533); test: kinase selectivity, EGFR; type: biochemical
# in vitro = conditions: human, liver microsomes
# human monocytes = test: human monocyte cytokine release assay (IgG stimulation); type: cell-based; conditions: for release of IL-1β from human monocytes following FcγR stimulation with IgG: FIG. 2
# Experimental: Human monocytes were isolated from Ficoll-gradient purified PBMC from healthy human volunteers using negative selection with EasySep (StemCells) magnetic beads. CD14+monocytes were then stimulated with IFN-gamma for 6 days, and then 2×10^6 cells were plated onto 10 μg/ml of human IgG (R&D Biosystems) coated onto Immulon 4 ELISA plates. […] Supernatants were collected from the plates and cytokines levels were determined with ELISA kits.
# RAW264.7 cells = test: IgG mediated phagocytosis of Zymosan particles; type: cell-based, murine; conditions: IgG opsonized Zymosan particles, RAW cells
# Experimental: Prelabeled Zymosan particles were first opsonized with mouse IgG at 37 C for 30 min, and then centrifuged down and washed several times with PBS. The Zymosan particles are the resuspended in PBS.
# [4] = tested on: murine collagen-antibody-induced arthritis model (CAIA model); test: murine collagen-antibody-induced arthritis model (CAIA model); type: in vivo, DBA/1 mice; conditions: for dose that completely suppressed the development of arthritis: mouse, in vivo
# Experimental: DBA/1 mice were injected intravenously with 2 mg of Arthrogen-CIA 5 mouse anti-bovine collagen (Chondrex) on day 0. Three days later, these mice were injected IP with 50 μg of LPS.
# Mice were monitored for clinical symptoms daily with the criteria below.
# 0=normal 1=1 hind or fore paw joint affected 2=2 hind or fore paw joints affected 3=3 hind or fore paw joints affected 4=moderate (erythema and moderate swelling, or =4 digit joints affected) 5=severe (diffuse erythema and severe swelling entire paw, unable to flex digits)
# [5] = interspecies scaling of clearance and estimation of efficacious human daily dosage; conditions: FIG. 7
# Experimental: There is an excellent scaling of clearance (dose/AUC) within mice, rats and dogs, and therefore exposure to dose projection in humans is likely precise. Based on interspecies scaling of clearance, the human BW normalized CL/F was determined to be about 2.53 (FIG. 7).
# JAK1 = JAK1 (Homo sapiens, UniProt P23458); test: kinase selectivity, JAK1; type: biochemical
# JAK3 = biological target: T1, JAK3 (Homo sapiens, UniProt P52333); test: kinase selectivity, JAK3; type: biochemical
# T1 sequence (P52333 1-1124): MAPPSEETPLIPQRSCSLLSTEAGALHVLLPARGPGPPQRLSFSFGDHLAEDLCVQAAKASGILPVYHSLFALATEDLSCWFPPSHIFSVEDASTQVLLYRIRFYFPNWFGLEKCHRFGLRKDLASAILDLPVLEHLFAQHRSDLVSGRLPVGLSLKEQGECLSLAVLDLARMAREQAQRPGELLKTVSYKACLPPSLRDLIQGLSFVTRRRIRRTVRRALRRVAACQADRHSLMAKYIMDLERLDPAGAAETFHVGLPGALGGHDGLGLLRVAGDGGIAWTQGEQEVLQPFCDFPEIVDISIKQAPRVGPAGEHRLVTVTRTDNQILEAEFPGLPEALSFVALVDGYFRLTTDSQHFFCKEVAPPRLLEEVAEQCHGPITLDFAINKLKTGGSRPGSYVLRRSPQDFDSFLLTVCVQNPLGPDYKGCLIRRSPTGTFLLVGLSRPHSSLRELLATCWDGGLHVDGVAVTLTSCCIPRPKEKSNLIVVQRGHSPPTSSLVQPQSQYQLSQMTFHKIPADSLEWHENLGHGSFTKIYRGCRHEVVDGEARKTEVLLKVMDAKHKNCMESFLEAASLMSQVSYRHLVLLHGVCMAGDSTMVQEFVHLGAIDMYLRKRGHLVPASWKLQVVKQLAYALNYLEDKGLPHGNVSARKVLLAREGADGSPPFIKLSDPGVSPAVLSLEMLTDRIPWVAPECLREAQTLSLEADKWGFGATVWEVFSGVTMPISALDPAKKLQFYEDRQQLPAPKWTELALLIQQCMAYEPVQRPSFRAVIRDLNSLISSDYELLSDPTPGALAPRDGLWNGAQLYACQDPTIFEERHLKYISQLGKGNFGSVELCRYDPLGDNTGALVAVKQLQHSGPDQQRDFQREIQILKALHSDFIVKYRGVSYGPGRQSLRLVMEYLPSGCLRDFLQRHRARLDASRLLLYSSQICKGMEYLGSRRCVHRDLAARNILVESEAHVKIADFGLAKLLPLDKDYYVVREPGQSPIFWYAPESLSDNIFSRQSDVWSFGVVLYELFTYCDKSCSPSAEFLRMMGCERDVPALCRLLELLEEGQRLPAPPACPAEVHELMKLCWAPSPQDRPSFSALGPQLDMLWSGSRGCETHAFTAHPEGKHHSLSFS
# CD20+ B cells [6] = test: B cell viability; type: cell-based, human; conditions: concentrations below 10 μM
# Experimental: as §1
# in vivo = conditions: CDIGS, rat
# Abl = Abl (Homo sapiens, UniProt P00519); test: kinase selectivity, Abl; type: biochemical
# [7] = hepatic extraction ratio in rats; type: in vivo; conditions: oral, 1-(AUC systemic÷AUC portal)
# Experimental: The analyses were performed using nominal sample times and a noncompartmental method with uniform weighting. Pharmacokinetic parameter estimates included terminal half-life and area under the concentration-time curve (AUC). Extraction ratios were calculated as 1-(AUC systemic÷AUC portal).
# Btk, sequence (Q06187 whole entry): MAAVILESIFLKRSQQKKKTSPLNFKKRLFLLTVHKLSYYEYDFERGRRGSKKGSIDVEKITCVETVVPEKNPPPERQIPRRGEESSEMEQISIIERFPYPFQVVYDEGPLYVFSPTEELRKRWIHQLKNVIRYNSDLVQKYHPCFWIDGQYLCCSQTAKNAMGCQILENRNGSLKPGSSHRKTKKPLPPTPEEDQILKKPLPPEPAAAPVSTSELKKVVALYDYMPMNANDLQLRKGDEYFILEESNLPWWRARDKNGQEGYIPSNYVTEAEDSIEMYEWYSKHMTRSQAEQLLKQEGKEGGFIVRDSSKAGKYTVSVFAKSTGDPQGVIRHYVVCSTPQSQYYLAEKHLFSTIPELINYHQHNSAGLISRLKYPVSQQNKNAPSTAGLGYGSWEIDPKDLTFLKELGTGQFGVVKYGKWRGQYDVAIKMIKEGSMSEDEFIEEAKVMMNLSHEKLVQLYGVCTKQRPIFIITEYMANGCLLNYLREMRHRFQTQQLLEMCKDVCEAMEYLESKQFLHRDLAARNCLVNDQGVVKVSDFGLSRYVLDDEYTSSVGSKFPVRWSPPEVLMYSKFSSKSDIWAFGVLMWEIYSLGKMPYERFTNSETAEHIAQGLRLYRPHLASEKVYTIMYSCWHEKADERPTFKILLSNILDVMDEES
# Abl, sequence (P00519 whole entry, species assumed): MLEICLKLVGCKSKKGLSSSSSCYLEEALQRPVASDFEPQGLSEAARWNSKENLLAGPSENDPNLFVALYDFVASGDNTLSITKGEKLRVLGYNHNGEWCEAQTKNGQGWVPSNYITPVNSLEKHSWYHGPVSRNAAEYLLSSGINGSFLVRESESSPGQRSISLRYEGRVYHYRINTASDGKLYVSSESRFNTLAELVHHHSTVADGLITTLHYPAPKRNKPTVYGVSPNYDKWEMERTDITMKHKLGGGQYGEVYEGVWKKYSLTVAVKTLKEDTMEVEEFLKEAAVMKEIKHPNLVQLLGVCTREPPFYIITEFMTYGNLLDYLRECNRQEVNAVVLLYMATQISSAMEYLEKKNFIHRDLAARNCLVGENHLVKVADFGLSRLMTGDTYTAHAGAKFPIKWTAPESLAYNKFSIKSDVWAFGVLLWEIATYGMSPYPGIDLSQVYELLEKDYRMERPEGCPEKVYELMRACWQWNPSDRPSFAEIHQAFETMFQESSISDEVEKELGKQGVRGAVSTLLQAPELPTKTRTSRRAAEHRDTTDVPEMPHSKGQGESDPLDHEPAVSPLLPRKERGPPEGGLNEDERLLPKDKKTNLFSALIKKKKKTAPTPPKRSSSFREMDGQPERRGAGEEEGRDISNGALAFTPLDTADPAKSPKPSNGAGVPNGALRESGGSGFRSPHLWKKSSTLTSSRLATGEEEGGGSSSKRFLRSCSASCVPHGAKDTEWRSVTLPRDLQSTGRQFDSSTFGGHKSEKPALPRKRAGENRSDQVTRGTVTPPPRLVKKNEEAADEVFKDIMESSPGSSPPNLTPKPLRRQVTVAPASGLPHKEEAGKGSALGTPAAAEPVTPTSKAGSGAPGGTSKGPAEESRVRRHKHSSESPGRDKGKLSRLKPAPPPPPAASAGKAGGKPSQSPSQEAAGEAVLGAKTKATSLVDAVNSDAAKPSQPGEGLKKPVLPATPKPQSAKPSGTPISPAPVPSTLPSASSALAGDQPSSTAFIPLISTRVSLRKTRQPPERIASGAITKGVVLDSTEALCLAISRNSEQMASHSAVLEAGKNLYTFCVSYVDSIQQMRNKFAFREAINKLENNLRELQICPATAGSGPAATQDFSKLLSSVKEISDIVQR
# VEGFR2, sequence (P35968 20-1356, species assumed): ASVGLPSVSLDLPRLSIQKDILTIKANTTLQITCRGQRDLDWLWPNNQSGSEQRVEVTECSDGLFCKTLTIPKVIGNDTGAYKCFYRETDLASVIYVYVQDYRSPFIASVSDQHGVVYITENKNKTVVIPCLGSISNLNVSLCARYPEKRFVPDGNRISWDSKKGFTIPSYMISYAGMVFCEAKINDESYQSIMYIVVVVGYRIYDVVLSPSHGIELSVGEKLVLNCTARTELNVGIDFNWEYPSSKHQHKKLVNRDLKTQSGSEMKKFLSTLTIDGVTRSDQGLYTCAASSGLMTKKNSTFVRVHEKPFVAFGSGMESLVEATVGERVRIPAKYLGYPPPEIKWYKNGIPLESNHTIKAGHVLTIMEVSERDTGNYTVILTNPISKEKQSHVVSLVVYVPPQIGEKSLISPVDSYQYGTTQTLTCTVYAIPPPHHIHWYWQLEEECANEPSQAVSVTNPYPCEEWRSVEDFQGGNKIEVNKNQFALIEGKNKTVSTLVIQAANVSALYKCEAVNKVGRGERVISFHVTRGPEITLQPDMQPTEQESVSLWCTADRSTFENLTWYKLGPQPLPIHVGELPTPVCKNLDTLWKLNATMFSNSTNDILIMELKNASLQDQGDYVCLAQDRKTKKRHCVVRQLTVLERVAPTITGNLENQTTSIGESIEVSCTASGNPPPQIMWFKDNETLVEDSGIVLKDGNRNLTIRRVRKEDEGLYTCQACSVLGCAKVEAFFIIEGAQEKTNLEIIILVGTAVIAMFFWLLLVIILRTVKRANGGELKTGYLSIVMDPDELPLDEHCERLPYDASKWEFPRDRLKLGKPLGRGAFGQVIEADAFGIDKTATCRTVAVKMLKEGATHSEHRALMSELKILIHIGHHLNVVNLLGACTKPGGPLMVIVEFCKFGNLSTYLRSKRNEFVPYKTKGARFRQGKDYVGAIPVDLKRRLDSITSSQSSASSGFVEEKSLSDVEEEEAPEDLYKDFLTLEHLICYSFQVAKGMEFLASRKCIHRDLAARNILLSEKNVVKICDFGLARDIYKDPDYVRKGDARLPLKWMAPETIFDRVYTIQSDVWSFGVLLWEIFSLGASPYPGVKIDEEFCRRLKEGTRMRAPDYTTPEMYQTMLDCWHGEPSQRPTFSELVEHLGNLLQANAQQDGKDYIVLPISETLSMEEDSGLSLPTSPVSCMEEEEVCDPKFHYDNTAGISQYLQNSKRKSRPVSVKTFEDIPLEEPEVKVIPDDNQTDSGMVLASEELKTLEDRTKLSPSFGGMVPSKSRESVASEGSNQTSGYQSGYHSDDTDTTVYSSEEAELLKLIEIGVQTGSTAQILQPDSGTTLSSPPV
# JAK1, sequence (P23458 whole entry): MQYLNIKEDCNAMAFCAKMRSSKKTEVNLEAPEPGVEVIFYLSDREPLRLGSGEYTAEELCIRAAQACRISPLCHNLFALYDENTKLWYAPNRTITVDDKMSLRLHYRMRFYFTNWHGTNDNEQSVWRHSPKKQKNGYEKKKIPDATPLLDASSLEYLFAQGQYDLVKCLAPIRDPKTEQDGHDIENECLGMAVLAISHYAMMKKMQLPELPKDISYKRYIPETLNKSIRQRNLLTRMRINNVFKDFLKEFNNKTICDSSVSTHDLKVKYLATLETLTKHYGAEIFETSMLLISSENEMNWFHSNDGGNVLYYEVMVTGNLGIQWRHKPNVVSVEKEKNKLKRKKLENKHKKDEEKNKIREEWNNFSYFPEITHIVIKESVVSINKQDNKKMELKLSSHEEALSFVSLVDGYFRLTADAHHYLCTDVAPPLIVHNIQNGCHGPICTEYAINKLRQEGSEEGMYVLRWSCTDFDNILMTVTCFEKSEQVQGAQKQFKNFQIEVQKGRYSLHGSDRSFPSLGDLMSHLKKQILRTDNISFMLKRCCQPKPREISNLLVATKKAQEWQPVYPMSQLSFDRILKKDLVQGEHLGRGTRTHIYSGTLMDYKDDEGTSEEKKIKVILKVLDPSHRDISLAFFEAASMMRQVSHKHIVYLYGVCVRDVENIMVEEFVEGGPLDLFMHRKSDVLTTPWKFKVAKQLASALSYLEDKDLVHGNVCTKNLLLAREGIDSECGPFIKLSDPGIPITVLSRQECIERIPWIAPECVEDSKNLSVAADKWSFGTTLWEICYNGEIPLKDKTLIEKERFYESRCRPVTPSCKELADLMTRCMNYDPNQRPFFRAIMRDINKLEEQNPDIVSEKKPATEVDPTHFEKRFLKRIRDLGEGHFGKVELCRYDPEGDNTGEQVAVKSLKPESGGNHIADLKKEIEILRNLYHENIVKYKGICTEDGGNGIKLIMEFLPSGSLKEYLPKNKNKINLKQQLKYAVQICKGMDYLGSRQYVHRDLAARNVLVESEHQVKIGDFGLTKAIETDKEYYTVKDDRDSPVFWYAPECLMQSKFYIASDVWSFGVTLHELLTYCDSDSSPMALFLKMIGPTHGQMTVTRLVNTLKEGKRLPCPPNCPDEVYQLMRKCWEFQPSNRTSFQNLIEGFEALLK
compound,measurement,setting,value
CN(C)C/C=C/C(=O)N1CC[C@@H](n2nc(-c3ccc(Oc4ccccc4)cc3)c3c(N)ncnc32)C1 [Compound 1],inhibition of VEGFR2,VEGFR2,no significant inhibition
same,T cell viability,CD3+ T cells,did not decrease
same,time after drug administration at which reversal of clinical arthritis was observed,[1]; 1.6 and 3.2 mg/kg/day,1 days
same,clinical arthritic symptoms,"[1]; 1.6 and 3.2 mg/kg/day, treatment for 12 days",reversed clinical arthritic symptoms
same,arthritic clinical scores,[1]; FIG. 4,reversal of arthritic clinical scores
same,EC50 of inhibition of overt manifestations of arthritis (clinical arthritic symptoms),"[1]; mice, CIA",0.61 mg/kg/day
same,"inflammatory synovitis, pannus formation, synovial fluid cytokines, cartilage damage and bone erosion",[1],dose-dependently inhibited
same,basophil activation following anti-IgE stimulation,[2]; FIG. 1,basophil activation inhibition
same,EC50,"[2]; listed as (E)-1-4R)-3-(4-amino-3-(4-phenoxyphenyl)-1H-pyrazolo[3,4-d]pyrimidin-1-yl)pyrrol",~92 nM
same,inhibition of JAK2,JAK2,no significant inhibition
same,IC50,Btk,1 to 2 nM
same,selectivity as inhibitor of Btk,Btk; compared with Compound 2 or dasatinib,more selective inhibitor of Btk
same,EC50,CD20+ B cells [3],2 nM
same,inhibition of EGFR,EGFR,no significant inhibition
same,half-life,in vitro,19.2 min
same,concentration inhibiting cytokine release from human monocytes,human monocytes,20 to 100 nM
same,release of IL-1β from human monocytes following FcγR stimulation with IgG,"human monocytes; listed as (E)-1-(R)-3-(4-amino-3-(4-phenoxyphenyl)-1H-pyrazolo[3,4-d]pyrimidin-1-yl)pyrro",suppressed the release of IL-1b; also recorded: monocyte release inhibition of IL-1β
same,concentration up to which IgG-mediated phagocytosis was not inhibited,RAW264.7 cells,"> 10,000 nM"
same,clinical arthritis,"[4]; 0.8, 1.6 and 3.2 mg/kg/day, day 0 to day 14",completely prevented and suppressed clinical arthritis
same,dose that completely suppressed the development of arthritis,[4],0.8 mg/kg/day
same,allometric scaling of CL/F vs. Body Weight in multiple species,[5],linear
same,inhibition of JAK1,JAK1,no significant inhibition
same,inhibition of JAK3,JAK3,no significant inhibition
same,B cell viability,CD20+ B cells [6],did not decrease
same,bioavailability,in vivo; in vivo,24.7%
same,inhibition of Abl,Abl,no significant inhibition
same,hepatic extraction ratio,[7],0.289
"C=CC(=O)N1CCC[C@@H](n2nc(-c3ccc(Oc4ccccc4)cc3)c3c(N)ncnc32)C1 [Compound 2, reference compound]",T cell viability,CD3+ T cells,did not decrease
same,"inflammatory synovitis, pannus formation, synovial fluid cytokines, cartilage damage and bone erosion",[1],dose-dependently inhibited
same,EC50,[2],20 to 100 nM
same,EC50,CD20+ B cells [3],2 nM
same,release of IL-1β from human monocytes following FcγR stimulation with IgG,"human monocytes; listed as (R)-1-(3-(4-amino-3-(4-phenoxyphenyl)-1H-pyrazolo[3,4-d]pyrimidin-1-yl)piperidin)",suppressed the release of IL-1b; also recorded: monocyte release inhibition of IL-1β
same,dose that completely suppressed the development of arthritis,[4],6.25 mg/kg/day
same,B cell viability,CD20+ B cells [6],did not decrease
same,bioavailability,"in vivo; plasma, oral",22.8%
"C[C@@H]1C[C@H]2[C@@H]3CCC4=CC(=O)C=C[C@]4(C)[C@@]3(F)[C@@H](O)C[C@]2(C)[C@@]1(O)C(=O)CO [dexamethasone, reference compound]",average clinical scores,"[4]; 0.2 mg/kg, day 14",1
"CN(Cc1cnc2nc(N)nc(N)c2n1)c1ccc(C(=O)N[C@@H](CCC(=O)O)C(=O)O)cc1 [methotrexate, reference compound]","clinical arthritis, disease course",[1]; 1.5 mg/kg/day,stabilized disease without further progression of arthritic swelling
